Reference: patent US20230113775A1, “ANHYDROUS COMPOSITIONS OF EGFR INHIBITORS AND METHODS OF USE” (priority 2021, published 2023)
Entries after “also recorded” stand apart in the source; their conditions may differ.

Columns and labels:
[1] = test system: Normal keratinocyte cells; assay: Effect of erlotinib on 2D non-diseased keratinocytes (proliferation, Loricrin expression); type: cell-based
Experimental: Normal keratinocyte cells were cultured and treated with vehicle or erlotinib at 100, 500 and 1000 nM. The proliferation rate of the cells was determined.

[2] = test system: Non-diseased 3D human skin equivalent (HSE); assay: Effect of erlotinib on non-diseased 3D human skin equivalent; type: cell-based; settings: 100 nM erlotinib every 72 hours until harvest at day 10
Experimental: Human skin equivalents were prepared by methods known in the art. Examples of such methods are disclosed in Mieremet et al. Int. J. Mol. Sci. (2021) 22(11):5790. Non-diseased cells were plated for 3D human skin equivalent (HSE) and treated with 100 nM erlotinib from the time of lifting to the air-liquid interface every 72 hours until harvest at day 10. The samples were subjected to protein, mRNA, immunofluorescence and morphological analysis.

EI derived keratinocyte = assay: Effect of erlotinib on 2D cultured keratinocytes derived from epidermolytic ichthyosis (colony density); type: cell-based, human; settings: 100 nM erlotinib; microscope and fold change
Experimental: Tissue from non-diseased donors and EI patients were cultured and treated with 100 nM erlotinib.

3D EI HSE = assay: Effect of erlotinib on EI 3D HSE (morphological analysis); type: cell-based, human; settings: 100 nM erlotinib every 72 hours until harvest at day 12; EI constructs
Experimental: Non-diseased cells and cells from an EI patient were plated for 3D human skim equivalent (HSE)and treated with 100 nM erlotinib from the time of lifting to the air-liquid interface every 72 hours until harvest at day 12. The samples were subjected to morphological analysis. […] (FIGS. 4A-B).

non-diseased 3D HSE = assay: TEER epidermal barrier function, non-diseased 3D HSE; type: cell-based, human; settings: 10 nM and 100 nM erlotinib
EI 3D HSE = assay: TEER epidermal barrier function, EI 3D HSE; type: cell-based, human; settings: 10 nM and 100 nM erlotinib
[3] = test system: Non-diseased 3D human skin equivalent (HSE); assay: Gene expression analysis, non-diseased 3D HSE; type: cell-based
Experimental: Non-diseased cells and cells from an EI patient were plated for 3D human skin equivalent (HSE)and treated with the erlotinib at 10 nM or 100 nM from the time of lifting to the air-liquid interface every 72 hours until harvest at day 10. The samples were subjected to gene expression analysis. […] Markers of terminal differentiation such as fillaggrin (FLG) and loricrin (LOR) and markers of cell adhesion such as desmoglein 1 (DSG 1) were also modified.
Gene expression results for non-diseased tissue following treatment with erlotinib: […]

[4] = test system: Hairless Skh-1 mice treated with TPA; assay: Mouse model of hyperkeratosis (TPA-induced skin inflammation); type: in vivo; settings: composition comprising 0.4%, 1.0% or 4.0% erlotinib daily starting on Day 8
Experimental: Hairless Skh-1 mice were treated with 12-O-Tetradecanoylphorbol-13-acetate (TPA) daily for 7 days than every other day for the next 7 days to induce skin inflammation. The mice were then treated with vehicle or a composition comprising 0.4%, 1.0% or 4.0% erlotinib daily starting on Day 8. The mice were assessed for degrees of inflammation, transepidermal water loss and expression of p^Y1068EGFR, EGFR, KRT10 and KRT16.

[5] = harvest day 10, listed as Erlotinib
[6] = Erlo 10 nM, NHEK83.19 non-diseased 3D HSE, Control 1.00
[7] = Erlo 10 nM, NUTC394.14 non-diseased 3D HSE, Control 1.00
[8] = Erlo 10 nM, NUTC439.14 non-diseased 3D HSE, Control 1.0
[9] = Erlo 100 nM, NHEK83.19 non-diseased 3D HSE, Control 1.00
[10] = Erlo 100 nM, NUTC394.14 non-diseased 3D HSE, Control 1.00
[11] = Erlo 100 nM, NUTC439.14 non-diseased 3D HSE, Control 1.0

How did the keratinocyte differentiation ([1]; following exposure to erlotinib) turn out when C#Cc1cccc(Nc2ncnc3cc(OCCOC)c(OCCOC)cc23)c1 [erlotinib] was run?
The keratinocyte differentiation was “keratinocyte differentiation is increased”.

And the Loricrin expression ([1]; high dose erlotinib)?
Its Loricrin expression is “increased Loricrin expression”.

What about the keratinocyte proliferation ([1]; medium and high doses of erlotinib (tested 100, 500 and 1000 nM) vs vehicle) of the same molecule?
The keratinocyte proliferation was “decreased keratinocyte proliferation”.

What about the desmosomal organization [2] of the same molecule?
The desmosomal organization was “desmosomal organization is enhanced”.

And the terminal differentiation [2]?
The terminal differentiation was “enhances terminal differentiation”.

And the “EI derived keratinocyte colony density” value (EI derived keratinocyte)?
Its value is “marked reduction in colony density; also recorded: markedly reduced”.

What about the “morphologic change in the upper epidermis” value (3D EI HSE) of the same molecule?
The value was “marked morphologic change”.

And the “epidermal barrier function (TEER)” value (non-diseased 3D HSE; harvest day 10)?
Its value is “does not impair epidermal barrier function”.

What about the “epidermal barrier function (TEER)” value (non-diseased 3D HSE; [5]) of the same molecule?
The value was “did not produced a significant change in TEER values”.

And the “epidermal barrier function (TEER)” value (EI 3D HSE; harvest day 10)?
Its value is “does not impair epidermal barrier function”.

And the “epidermal barrier function (TEER)” value (EI 3D HSE; [5])?
The value was “did not produced a significant change in TEER values”.

What about the CDN4 gene expression [3, 6] of the same molecule?
The CDN4 gene expression was 2.92.

What about the CLDN1 gene expression [3, 6] of the same molecule?
Its CLDN1 gene expression is 1.30.

What about the DSC1 gene expression [3, 6] of the same molecule?
The DSC1 gene expression was 0.60.

What about the DSG1 gene expression [3, 6] of the same molecule?
Its DSG1 gene expression is 0.73.

And the FLG gene expression [3, 6]?
The FLG gene expression was 0.51.

What about the IVL gene expression [3, 6] of the same molecule?
The IVL gene expression was 2.15.

What about the KRT10 gene expression [3, 6] of the same molecule?
Its KRT10 gene expression is 0.28.

What about the KRT16 gene expression [3, 6] of the same molecule?
Its KRT16 gene expression is 1.70.

What about the LOR gene expression [3, 6] of the same molecule?
The LOR gene expression was 0.03.

And the OCLN gene expression [3, 6]?
Its OCLN gene expression is 1.76.

What about the TJP1 gene expression [3, 6] of the same molecule?
Its TJP1 gene expression is 1.65.

And the CDN4 gene expression [3, 7]?
Its CDN4 gene expression is 2.87.

What about the CLDN1 gene expression [3, 7] of the same molecule?
The CLDN1 gene expression was 1.28.

What about the DSC1 gene expression [3, 7] of the same molecule?
The DSC1 gene expression was 0.59.

And the DSG1 gene expression [3, 7]?
The DSG1 gene expression was 0.72.

What about the FLG gene expression [3, 7] of the same molecule?
Its FLG gene expression is 0.50.

And the IVL gene expression [3, 7]?
The IVL gene expression was 2.11.

And the KRT10 gene expression [3, 7]?
The KRT10 gene expression was 0.27.

And the KRT16 gene expression [3, 7]?
The KRT16 gene expression was 1.67.

And the LOR gene expression [3, 7]?
The LOR gene expression was 0.03.

And the OCLN gene expression [3, 7]?
The OCLN gene expression was 1.73.

What about the TJP1 gene expression [3, 7] of the same molecule?
The TJP1 gene expression was 1.62.

What about the CDN4 gene expression [3, 8] of the same molecule?
Its CDN4 gene expression is 0.7.

And the CLDN1 gene expression [3, 8]?
The CLDN1 gene expression was 1.9.

And the DSC1 gene expression [3, 8]?
Its DSC1 gene expression is 1.9.

What about the DSG1 gene expression [3, 8] of the same molecule?
Its DSG1 gene expression is 2.1.

And the FLG gene expression [3, 8]?
The FLG gene expression was 1.0.

And the IVL gene expression [3, 8]?
The IVL gene expression was 0.9.

And the KRT10 gene expression [3, 8]?
The KRT10 gene expression was 2.1.

What about the KRT16 gene expression [3, 8] of the same molecule?
Its KRT16 gene expression is 0.9.

What about the LOR gene expression [3, 8] of the same molecule?
The LOR gene expression was 1.4.

What about the OCLN gene expression [3, 8] of the same molecule?
Its OCLN gene expression is 0.7.

What about the TJP1 gene expression [3, 8] of the same molecule?
The TJP1 gene expression was 0.7.

What about the CDN4 gene expression [3, 9] of the same molecule?
The CDN4 gene expression was 1.65.

And the CLDN1 gene expression [3, 9]?
Its CLDN1 gene expression is 1.24.

And the DSC1 gene expression [3, 9]?
The DSC1 gene expression was 2.69.

And the DSG1 gene expression [3, 9]?
The DSG1 gene expression was 2.77.

And the FLG gene expression [3, 9]?
Its FLG gene expression is 2.37.

What about the IVL gene expression [3, 9] of the same molecule?
Its IVL gene expression is 1.21.

And the KRT10 gene expression [3, 9]?
The KRT10 gene expression was 11.50.

And the KRT16 gene expression [3, 9]?
The KRT16 gene expression was 1.00.

And the LOR gene expression [3, 9]?
The LOR gene expression was 8.19.

What about the OCLN gene expression [3, 9] of the same molecule?
The OCLN gene expression was 1.36.

And the TJP1 gene expression [3, 9]?
The TJP1 gene expression was 1.58.

And the CDN4 gene expression [3, 10]?
The CDN4 gene expression was 1.54.

What about the CLDN1 gene expression [3, 10] of the same molecule?
The CLDN1 gene expression was 1.16.

And the DSC1 gene expression [3, 10]?
Its DSC1 gene expression is 2.52.

And the DSG1 gene expression [3, 10]?
The DSG1 gene expression was 2.59.

What about the FLG gene expression [3, 10] of the same molecule?
The FLG gene expression was 2.21.

And the IVL gene expression [3, 10]?
Its IVL gene expression is 1.14.

And the KRT10 gene expression [3, 10]?
The KRT10 gene expression was 10.75.

What about the KRT16 gene expression [3, 10] of the same molecule?
The KRT16 gene expression was 0.89.

And the LOR gene expression [3, 10]?
The LOR gene expression was 7.66.

And the OCLN gene expression [3, 10]?
Its OCLN gene expression is 1.27.

What about the TJP1 gene expression [3, 10] of the same molecule?
Its TJP1 gene expression is 1.48.

And the CDN4 gene expression [3, 11]?
The CDN4 gene expression was 1.4.

What about the CLDN1 gene expression [3, 11] of the same molecule?
Its CLDN1 gene expression is 29.4.

What about the DSC1 gene expression [3, 11] of the same molecule?
Its DSC1 gene expression is 29.4.

What about the DSG1 gene expression [3, 11] of the same molecule?
Its DSG1 gene expression is 9.3.

What about the FLG gene expression [3, 11] of the same molecule?
Its FLG gene expression is 25.9.

And the IVL gene expression [3, 11]?
Its IVL gene expression is 1.5.

What about the KRT10 gene expression [3, 11] of the same molecule?
The KRT10 gene expression was 17.2.

And the KRT16 gene expression [3, 11]?
The KRT16 gene expression was 1.6.

And the OCLN gene expression [3, 11]?
The OCLN gene expression was 1.6.

What about the TJP1 gene expression [3, 11] of the same molecule?
Its TJP1 gene expression is 1.3.

And the “keratin 10 (KRT10) expression” value ([3]; normal human keratinocytes in 3D culture, erlotinib 10 nM or 100 nM)?
The value was “marked increase”.

What about the skin inflammation ([4]; TPA-treated Skh-1 mice) of the same molecule?
Its skin inflammation is “dose dependent reduction of skin inflammation”.

And the transepithelial water loss ([4]; TPA-treated Skh-1 mice)?
The transepithelial water loss was “significantly decreasing transepithelial water loss”.

What about the “expression of p^Y1068EGFR, EGFR, KRT10 and KRT16” value ([4]; Western blot) of the same molecule?
Its value is “dose dependent change”.
